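Method: 48-hour compound exposure of cells in 96-well plates, five concentrations, linear interpolation of endpoints. The concentration for full growth arrest is given as TGI.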

The first assay deals with COLO 205 colon. Kind of assay: DTP human tumour cell line panel, 48 h.
As to `Nn1c(-c2ccccc2)nn(C(=O)c2ccccc2)c1=O`, the TGI was above 100 µM.
Still for that read-out and setting: the result for `COC(=O)C([C@H](NC1(c2ccccc2)c2ccccc2-c2ccccc21)C(=O)OC)N(NC(=O)OCc1ccccc1)C(=O)OCc1ccccc1` (mixture of isomers) reads above 100 µM; that for `CC[C@@H]1CC[C@@H]2[C@H](CC[C@]3(C)[C@@H](OC(C)=O)CC[C@@H]23)[C@H]1COC(C)=O`, 36.8 µM.
On to `Cc1ccc(N=NC(=Nc2ccccc2)c2ccc(N(CCC#N)CCC#N)cc2)cc1`, for which the TGI is above 100 µM.
For the compound `CC(=O)O[C@@H]1[C@H](C(C)C)[C@@H](OC(C)=O)C/C(C)=C/CC[C@]2(C)O[C@@H]12`, the TGI was above 100 µM.
Turning to `CN1CCc2cc(N)cc3c2C1Cc1ccc(O)c(O)c1-3` (configuration not stated), the TGI is above 100 µM.
`Nc1nc(Cl)cc(NCC2(CO)CC(=O)C2)n1` returned a TGI above 100 µM.
The same measure, in the same setting: the value for `O=C(N/N=C(/COc1ccc(Cl)cc1)N=Cc1ccncc1)c1ccncc1` was above 100 µM.
On the same count and under the same terms, the result for `COc1ccc2cc(NC(=O)N/N=C\c3ccc([N+](=O)[O-])cc3)ccc2c1` reads above 100 µM; that for `COc1cc2nc3n(c(=O)c2cc1OC)-c1ccc([N+](=O)[O-])cc1C3=O`, above 100 µM; that for `COc1cc(Br)cc2cc(-c3cn4ccsc4n3)c(=O)oc12`, above 100 µM.
Same read-out and setting: the value for `COc1ccc(N/N=C2\CCOc3ccc(C)cc3C2=O)cc1` was above 100 µM.
`COC(=O)C1SC(SC)=NC12c1ccccc1Nc1ccccc12` (configuration not stated) came in with a TGI of 39.3 µM.
Compound `O=C1CC(NC(=O)C(F)(F)F)c2c(Br)sc(N3CCNCC3)c21` (configuration not stated) registered a TGI above 100 µM.
In the case of `c1ccc(-c2nc(-c3ccccc3SSc3ccccc3-c3nc(-c4ccccc4)nn3-c3ccccc3)n(-c3ccccc3)n2)cc1`, the TGI was above 100 µM.
`N#CC1(C#N)N[C@@H](c2ccsc2)[C@H]2C(=O)N(c3ccccc3)C(=O)[C@H]21` had a total growth inhibition concentration (TGI) above 100 µM.

Another assay concerns EKVX NSCLC. Kind of assay: DTP human tumour cell line panel, 48 h.
`CCCCCCc1cc2cc(-c3csc(CC#N)n3)c(=O)oc2cc1O` gave a TGI above 100 µM.
`CC(=O)NC(Cc1ccc(O)cc1)C(=O)O` (configuration not stated) gave a TGI above 100 µM.
In the case of `O=C1CSC(c2ccc(Cl)cc2)N1c1ccc(Oc2ccc(Cl)cc2)c(Cl)c1` (configuration not stated), the TGI stood at 27.2 µM.
Still for that read-out and setting: the result for `Nn1c(-c2ccccc2)nn(C(=O)c2ccccc2)c1=O` reads above 100 µM.
Regarding `COC(=O)C([C@H](NC1(c2ccccc2)c2ccccc2-c2ccccc21)C(=O)OC)N(NC(=O)OCc1ccccc1)C(=O)OCc1ccccc1` (mixture of isomers), the TGI is above 100 µM.
As for `CC[C@@H]1CC[C@@H]2[C@H](CC[C@]3(C)[C@@H](OC(C)=O)CC[C@@H]23)[C@H]1COC(C)=O`, the TGI worked out at 73.6 µM.
On the same count and under the same terms, the value for `Cc1ccc(N=NC(=Nc2ccccc2)c2ccc(N(CCC#N)CCC#N)cc2)cc1` was above 100 µM.
As to `O=c1ccc(-c2ccccc2)n[nH]1`, the TGI was above 100 µM.
For `CC(=O)O[C@@H]1[C@H](C(C)C)[C@@H](OC(C)=O)C/C(C)=C/CC[C@]2(C)O[C@@H]12`, the TGI is above 100 µM.
Same read-out and setting: the value for `CN1CCc2cc(N)cc3c2C1Cc1ccc(O)c(O)c1-3` (configuration not stated) was above 100 µM; that for `Nc1nc(Cl)cc(NCC2(CO)CC(=O)C2)n1` was above 100 µM; that for `O=C(N/N=C(/COc1ccc(Cl)cc1)N=Cc1ccncc1)c1ccncc1` was above 100 µM.
Compound `COc1ccc2cc(NC(=O)N/N=C\c3ccc([N+](=O)[O-])cc3)ccc2c1` gave a TGI above 100 µM.
`COc1cc2nc3n(c(=O)c2cc1OC)-c1ccc([N+](=O)[O-])cc1C3=O` returned a TGI above 100 µM.
Take `COc1cc(Br)cc2cc(-c3cn4ccsc4n3)c(=O)oc12`: the TGI is above 100 µM.
As to `COc1ccc(N/N=C2\CCOc3ccc(C)cc3C2=O)cc1`, the TGI was above 100 µM.
The same measure, in the same setting: the value for `COC(=O)C1SC(SC)=NC12c1ccccc1Nc1ccccc12` (configuration not stated) was above 100 µM.
With `Nc1nc(SCCc2ccccc2)c2[nH]cnc2n1`, the TGI came to 78.8 µM.
Consider `O=C1CC(NC(=O)C(F)(F)F)c2c(Br)sc(N3CCNCC3)c21` (configuration not stated), for which the TGI is above 100 µM.
Turning to `c1ccc(-c2nc(-c3ccccc3SSc3ccccc3-c3nc(-c4ccccc4)nn3-c3ccccc3)n(-c3ccccc3)n2)cc1`, the TGI is above 100 µM.
On to `N#CC1(C#N)N[C@@H](c2ccsc2)[C@H]2C(=O)N(c3ccccc3)C(=O)[C@H]21`, for which the TGI is above 100 µM.

For another assay, the system named is HCC-2998 colon. Kind of assay: DTP human tumour cell line panel, 48 h.
The compound `CCCCCCc1cc2cc(-c3csc(CC#N)n3)c(=O)oc2cc1O` registered a TGI above 100 µM.
Compound `CC(=O)NC(Cc1ccc(O)cc1)C(=O)O` (configuration not stated) returned a TGI above 100 µM.
The same measure, in the same setting: the result for `O=C1CSC(c2ccc(Cl)cc2)N1c1ccc(Oc2ccc(Cl)cc2)c(Cl)c1` (configuration not stated) reads 33.4 µM.
In the case of `Nn1c(-c2ccccc2)nn(C(=O)c2ccccc2)c1=O`, the TGI was above 100 µM.
Compound `COC(=O)C([C@H](NC1(c2ccccc2)c2ccccc2-c2ccccc21)C(=O)OC)N(NC(=O)OCc1ccccc1)C(=O)OCc1ccccc1` (mixture of isomers) registered a TGI above 100 µM.
Still for that read-out and setting: the result for `CC[C@@H]1CC[C@@H]2[C@H](CC[C@]3(C)[C@@H](OC(C)=O)CC[C@@H]23)[C@H]1COC(C)=O` reads 33.4 µM; that for `Cc1ccc(N=NC(=Nc2ccccc2)c2ccc(N(CCC#N)CCC#N)cc2)cc1`, 48.6 µM; that for `O=c1ccc(-c2ccccc2)n[nH]1`, above 100 µM.
On the same count and under the same terms, the value for `CC(=O)O[C@@H]1[C@H](C(C)C)[C@@H](OC(C)=O)C/C(C)=C/CC[C@]2(C)O[C@@H]12` was above 100 µM; that for `CN1CCc2cc(N)cc3c2C1Cc1ccc(O)c(O)c1-3` (configuration not stated) was 33.1 µM; that for `Nc1nc(Cl)cc(NCC2(CO)CC(=O)C2)n1` was above 100 µM.
The same measure, in the same setting: the value for `O=C(N/N=C(/COc1ccc(Cl)cc1)N=Cc1ccncc1)c1ccncc1` was above 100 µM; that for `COc1ccc2cc(NC(=O)N/N=C\c3ccc([N+](=O)[O-])cc3)ccc2c1` was above 100 µM; that for `COc1cc2nc3n(c(=O)c2cc1OC)-c1ccc([N+](=O)[O-])cc1C3=O` was above 100 µM.
`COc1cc(Br)cc2cc(-c3cn4ccsc4n3)c(=O)oc12` showed a TGI of 24 µM.
Still for that read-out and setting: the result for `COc1ccc(N/N=C2\CCOc3ccc(C)cc3C2=O)cc1` reads 97.5 µM; that for `COC(=O)C1SC(SC)=NC12c1ccccc1Nc1ccccc12` (configuration not stated), 74.3 µM; that for `Nc1nc(SCCc2ccccc2)c2[nH]cnc2n1`, 93.8 µM.
Same read-out and setting: the result for `O=C1CC(NC(=O)C(F)(F)F)c2c(Br)sc(N3CCNCC3)c21` (configuration not stated) reads above 100 µM; that for `c1ccc(-c2nc(-c3ccccc3SSc3ccccc3-c3nc(-c4ccccc4)nn3-c3ccccc3)n(-c3ccccc3)n2)cc1`, above 100 µM.

For a further assay, the system named is HOP-62 NSCLC. The experiment in a line: DTP human tumour cell line panel, 48 h.
In the case of `CCCCCCc1cc2cc(-c3csc(CC#N)n3)c(=O)oc2cc1O`, the concentration for total growth inhibition (TGI) was above 100 µM.
For `CC(=O)NC(Cc1ccc(O)cc1)C(=O)O` (configuration not stated), the TGI was above 100 µM.
Regarding `O=C1CSC(c2ccc(Cl)cc2)N1c1ccc(Oc2ccc(Cl)cc2)c(Cl)c1` (configuration not stated), the concentration for total growth inhibition (TGI) stood at 41.9 µM.
Still for that read-out and setting: the value for `Nn1c(-c2ccccc2)nn(C(=O)c2ccccc2)c1=O` was above 100 µM.
`COC(=O)C([C@H](NC1(c2ccccc2)c2ccccc2-c2ccccc21)C(=O)OC)N(NC(=O)OCc1ccccc1)C(=O)OCc1ccccc1` (mixture of isomers) yielded a TGI above 100 µM.
As for `CC[C@@H]1CC[C@@H]2[C@H](CC[C@]3(C)[C@@H](OC(C)=O)CC[C@@H]23)[C@H]1COC(C)=O`, the TGI was above 100 µM.
In turn, `Cc1ccc(N=NC(=Nc2ccccc2)c2ccc(N(CCC#N)CCC#N)cc2)cc1` had a TGI above 100 µM.
`O=c1ccc(-c2ccccc2)n[nH]1` displayed a TGI above 100 µM.
Turning to `CC(=O)O[C@@H]1[C@H](C(C)C)[C@@H](OC(C)=O)C/C(C)=C/CC[C@]2(C)O[C@@H]12`, the TGI was above 100 µM.
The same measure, in the same setting: the result for `CN1CCc2cc(N)cc3c2C1Cc1ccc(O)c(O)c1-3` (configuration not stated) reads above 100 µM.

The record behind these values is PubChem BioAssay (NCI).
